Laboratory results taken from patent publication US20240390352A1, “PHARMACEUTICAL COMPOSITION FOR PREVENTING OR TREATING CANCER COMPRISING CARNITINE ACYLCARNITINE CARRIER INHIBITOR AND ANTITUMOR AGENT” (NEW CANCER CURE - BIO CO.,LTD., priority 2021, published 2024).
Values joined by “and” are separate entries in the source; they are usually repeats but may differ in a detail not shown here. Equal entries are not always repeated. “Also recorded” adds a separate entry of the source.

Assays:
CAKI-1 cells = assay: SRB assay cancer cell growth rate, CAKI-1; assay type: cell-based; settings: relative to control (100%), 48 hours, KN510 200 μM, irinotecan 2.5 μM, 5-FU 5 μM, gemcitabine 2.5 μM, paclitaxel 10 nM, cisplatin 1 μM, alone or KN510 + anticancer drug
[1] = tested on: liver cancer cell lines SK-HEP-1 cells and Huh-7 cells; assay: Synergistic effect of omeprazole and anticancer drug, liver cancer cell lines; assay type: cell-based; settings: anticancer drug combined with omeprazole (KN510) versus each treatment alone
[2] = tested on: colon cancer cell lines HCT-116 cells and COLO-205 cells; assay: Synergistic effect of omeprazole and anticancer drug, colon cancer cell lines; assay type: cell-based; settings: anticancer drug combined with omeprazole (KN510) versus each treatment alone
SR cells = assay: SRB assay cancer cell growth rate, SR; assay type: cell-based; settings: relative to control (100%), 48 hours, KN510 200 μM, irinotecan 2.5 μM, 5-FU 5 μM, gemcitabine 2.5 μM, paclitaxel 10 nM, cisplatin 1 μM, alone or KN510 + anticancer drug
[3] = tested on: ovarian cancer cells, OVCAR-8 cells and SK-OV-3 cells; assay: Synergistic effect of omeprazole and anticancer drug, ovarian cancer cells; assay type: cell-based; settings: anticancer drug combined with omeprazole (KN510) versus each treatment alone
[4] = tested on: glioblastoma (GBM) cell lines, U-87 MG cells and T87G cells; assay: Synergistic effect of omeprazole and anticancer drug, glioblastoma cell lines; assay type: cell-based; settings: anticancer drug combined with omeprazole (KN510) versus each treatment alone
[5] = tested on: melanoma cell lines UACC62 cells and UACC257 cells; assay: Synergistic effect of omeprazole and anticancer drug, melanoma cell lines; assay type: cell-based; settings: anticancer drug combined with omeprazole (KN510) versus each treatment alone
A549 cells = assay: SRB assay cancer cell growth rate, A549; assay type: cell-based; settings: relative to control (100%), 48 hours, KN510 200 μM, irinotecan 2.5 μM, 5-FU 5 μM, gemcitabine 2.5 μM, paclitaxel 10 nM, cisplatin 1 μM, alone or KN510 + anticancer drug
PC-3 cells = assay: SRB assay cancer cell growth rate, PC-3; assay type: cell-based; settings: relative to control (100%), 48 hours, KN510 200 μM, irinotecan 2.5 μM, 5-FU 5 μM, gemcitabine 2.5 μM, paclitaxel 10 nM, cisplatin 1 μM, alone or KN510 + anticancer drug
UACC257 cells = assay: SRB assay cancer cell growth rate, UACC257; assay type: cell-based; settings: relative to control (100%), 48 hours, KN510 200 μM, irinotecan 2.5 μM, 5-FU 5 μM, gemcitabine 2.5 μM, paclitaxel 10 nM, cisplatin 1 μM, alone or KN510 + anticancer drug
HCT-116 cells = assay: SRB assay cancer cell growth rate, HCT-116; assay type: cell-based; settings: relative to control (100%), 48 hours, KN510 200 μM, irinotecan 2.5 μM, 5-FU 5 μM, gemcitabine 2.5 μM, paclitaxel 10 nM, cisplatin 1 μM, alone or KN510 + anticancer drug
[6] = tested on: pancreatic ductal adenocarcinoma (PDAC) cell lines, MIA PaCa-2 cells and PANC-1 cells; assay: Synergistic effect of omeprazole and anticancer drug, pancreatic cancer cell lines; assay type: cell-based; settings: anticancer drug combined with omeprazole (KN510) versus each treatment alone
ACHN cells = assay: SRB assay cancer cell growth rate, ACHN; assay type: cell-based; settings: relative to control (100%), 48 hours, KN510 200 μM, irinotecan 2.5 μM, 5-FU 5 μM, gemcitabine 2.5 μM, paclitaxel 10 nM, cisplatin 1 μM, alone or KN510 + anticancer drug
[7] = tested on: leukemia cells, SR cells and K562 cells; assay: Synergistic effect of omeprazole and anticancer drug, leukemia cells; assay type: cell-based; settings: anticancer drug combined with omeprazole (KN510) versus each treatment alone
[8] = tested on: A549 and H23 lung cancer cells; assay: Synergistic effect of omeprazole and anticancer drug, lung cancer cells; assay type: cell-based; settings: anticancer drug combined with omeprazole (KN510) versus each treatment alone
[9] = tested on: MKN-28 cells and AGS cells, stomach cancer cells; assay: Synergistic effect of omeprazole and anticancer drug, stomach cancer cells; assay type: cell-based; settings: anticancer drug combined with omeprazole (KN510) versus each treatment alone
[10] = tested on: prostate cancer cells, PC-3 cells and DU-145 cells; assay: Synergistic effect of omeprazole and anticancer drug, prostate cancer cells; assay type: cell-based; settings: anticancer drug combined with omeprazole (KN510) versus each treatment alone
OVCAR-8 cells = assay: SRB assay cancer cell growth rate, OVCAR-8; assay type: cell-based; settings: relative to control (100%), 48 hours, KN510 200 μM, irinotecan 2.5 μM, 5-FU 5 μM, gemcitabine 2.5 μM, paclitaxel 10 nM, cisplatin 1 μM, alone or KN510 + anticancer drug
[11] = tested on: renal cell carcinoma cell lines CAKI-1 and ACHN cells; assay: Synergistic effect of omeprazole and anticancer drug, renal cancer cell lines; assay type: cell-based; settings: anticancer drug combined with omeprazole (KN510) versus each treatment alone
K562 cells = assay: SRB assay cancer cell growth rate, K562; assay type: cell-based; settings: relative to control (100%), 48 hours, KN510 200 μM, irinotecan 2.5 μM, 5-FU 5 μM, gemcitabine 2.5 μM, paclitaxel 10 nM, cisplatin 1 μM, alone or KN510 + anticancer drug
[12] = tested on: breast cancer cells, MDA-MB-231 cells and MCF-7 cells; assay: Synergistic effect of omeprazole and anticancer drug, breast cancer cells; assay type: cell-based; settings: anticancer drug combined with omeprazole (KN510) versus each treatment alone
UACC62 cells = assay: SRB assay cancer cell growth rate, UACC62; assay type: cell-based; settings: relative to control (100%), 48 hours, KN510 200 μM, irinotecan 2.5 μM, 5-FU 5 μM, gemcitabine 2.5 μM, paclitaxel 10 nM, cisplatin 1 μM, alone or KN510 + anticancer drug
[13] = tested on: MIA PaCa-2 cells xenograft tumor; assay: Pancreatic cancer xenograft tumor model; assay type: in vivo, Balb/c nude mice; settings: irinotecan 20 mg/kg IP 1 days/week, alone or combined
Description: To determine the anticancer synergistic effects of omeprazole (KN510) and irinotecan co-administration in vivo, a pancreatic cancer xenograft tumor model was constructed and administered with the drugs.
Specifically, 6-8 week old Balb/c nude mice (Orient, Korea) were inoculated subcutaneously with MIA PaCa-2 cells (1×10^7) in 100 μl PBS using 1 ml syringe, and when the tumor size reached 100 mm^3, the mice were randomly divided into 4 groups with 4 mice per group, and then treated with drugs as shown in Table 14 below.
We also performed two separate experiments with omeprazole (KN510), one at a concentration of 50 mg/kg and the other at 100 mg/kg. • 1) Control (solvent treatment) • 2) Omeprazole (KN510) alone (50 mg/kg or 100 mg/kg, P.O. injection), • 3) Irinotecan alone (20 mg/kg, I.P injection), • 4) Omeprazole (KN510) (50 mg/kg or 100 mg/kg)+irinotecan (20 mg/kg/) as a combination treatment group
Primary tumor size was measured weekly using calipers. Tumor volumes were calculated using Equation 1 below, and data are expressed as mean (mean)+standard deviation (SD) values of mouse tumor volume per group.

[14] = experiment with KN510 50 mg/kg PO 5 days/week
[15] = experiment with KN510 100 mg/kg PO 5 days/week

Row | Structure (SMILES) | CAKI-1 growth rate average (%) (CAKI-1 cells) | synergistic effect of omeprazole and an anticancer drug in combination, liver cancer [1] | synergistic effect of omeprazole and an anticancer drug in combination, colon cancer [2] | SR growth rate average (%) (SR cells) | synergistic effect of omeprazole and an anticancer drug in combination, ovarian cancer [3] | synergistic effect of omeprazole and an anticancer drug in combination, glioblastoma (GBM) [4] | synergistic effect of omeprazole and an anticancer drug in combination, melanoma [5] | A549 growth rate average (%) (A549 cells) | PC-3 growth rate average (%) (PC-3 cells) | UACC257 growth rate average (%) (UACC257 cells) | HCT-116 growth rate average (%) (HCT-116 cells) | synergistic effect of omeprazole and an anticancer drug in combination, pancreatic cancer (PDAC) [6] | ACHN growth rate average (%) (ACHN cells) | synergistic effect of omeprazole and an anticancer drug in combination, leukemia [7] | synergistic effect of omeprazole and an anticancer drug in combination, lung cancer [8] | synergistic effect of omeprazole and an anticancer drug in combination, stomach cancer [9] | synergistic effect of omeprazole and an anticancer drug in combination, prostate cancer [10] | OVCAR-8 growth rate average (%) (OVCAR-8 cells) | synergistic effect of omeprazole and an anticancer drug in combination, renal cell carcinoma [11] | K562 growth rate average (%) (K562 cells) | further results
1 | O=c1[nH]cc(F)c(=O)[nH]1 [5-FU, fluorouracil] | 47.91% | significantly inhibited; also recorded: Positive effect | significantly inhibited; also recorded: Positive effect | 96.15% | Negative effect | Negative effect | significantly inhibited; also recorded: Positive effect | 27.36% | 55.19% | 62.17% | 41.59% | Negative effect | 48.97% | significantly inhibited; also recorded: Positive effect | significantly inhibited; also recorded: Positive effect | Negative effect | Negative effect | 27.12% | significantly inhibited; also recorded: Positive effect | 99.83% | synergistic effect of omeprazole and an anticancer drug in combination, breast cancer [12]: Negative effect; UACC62 growth rate average (%) (UACC62 cells): 52.14%
2 | N.N.[Cl][Pt][Cl] [Cisplatin] | 88.17% | Negative effect | Negative effect | 93.52% | Positive effect | Negative effect | Negative effect | 99.46% | 82.60% | 76.16% | 100.00% | Negative effect | 78.57% | Positive effect | Negative effect | Negative effect | Negative effect | 51.47% | Negative effect | 102.62% | synergistic effect of omeprazole and an anticancer drug in combination, ovarian cancer ([3]; listed as cisplatin): significantly inhibited; synergistic effect of omeprazole and an anticancer drug in combination, leukemia ([7]; listed as cisplatin): significantly inhibited; synergistic effect of omeprazole and an anticancer drug in combination, breast cancer [12]: Negative effect; UACC62 growth rate average (%) (UACC62 cells): 62.76%
3 | Nc1ccn([C@@H]2O[C@H](CO)[C@@H](O)C2(F)F)c(=O)n1 [Gemcitabine] | 2.30% | Negative effect | Negative effect | 53.15% | Negative effect | Negative effect | Negative effect | −16.60% | 32.17% | 30.97% | 16.32% | Negative effect | −2.82% | Negative effect | Negative effect | Negative effect | Negative effect | −14.25% | Negative effect | 53.51% | synergistic effect of omeprazole and an anticancer drug in combination, breast cancer [12]: Negative effect; UACC62 growth rate average (%) (UACC62 cells): 53.65%
4 | COc1ccc2[nH]c([S+]([O-])Cc3ncc(C)c(OC)c3C)nc2c1 (stereo not drawn) [KN510, omeprazole] | 41.69% and 35.30% |  |  | 42.75% |  |  |  | 10.47% | 12.70% | 10.97% and 3.31% and 3.10% and 4.33% | 35.30% |  |  |  |  |  |  | 30.64% and 38.65% |  | 34.61% | Tumor volume, 2 week average [13, 14]: 143.01 mm^3; Tumor volume, 2 week average [13, 15]: 93.96 mm^3; Tumor volume, 3 week average [13, 14]: 675.69 mm^3; Tumor volume, 3 week average [13, 15]: 229.95 mm^3; Tumor volume, 4 week average [13, 14]: 965.63 mm^3; Tumor volume, 4 week average [13, 15]: 469.90 mm^3; Tumor volume, 5 week average [13, 14]: 1296.93 mm^3; Tumor volume, 5 week average [13, 15]: 843.25 mm^3
